Results as given in patent US20250101017A1, “SALT CRYSTAL FORM AND FREE BASE CRYSTAL FORM OF KINASE INHIBITOR” (CYTOSINLAB THERAPEUTICS CO., LTD., priority 2022, published 2025).
Where two headings read alike, the source gives them in different places.

Tests used:
[1] = Solid stability of crystal forms (80° C., light exposure, 25° C./60% RH, 40° C./75% RH); purity by liquid chromatography and XRPD of the solids; format: physicochemical
Protocol: A certain amount of API and malate crystal form VII-A were weighed and added into a liquid phase vial, and a total of 9 parallels were prepared. The 9 parallels were placed separately in 80° C. (open); 25° C., 60% RH (open); 40° C., 75% RH (open); and light stability box closed). The stabilities under conditions of: 80° C. for one day, light exposure for 10 days, as well as 25° C., 60% RH and 40° C., 75% RH for one and two weeks were tested, and the XRPD of the solids were measured.
A certain amount of crystal form B was weighed and added into a liquid phase vial, and a total of 9 parallels were prepared. 9 parallels were placed separately in 80° C.; 25° C., 60% RH, 40° C., 75% RH; and light stability boxe.

[2] = Solubility at 37° C. in buffer solutions with different pH (about 10 mg in 1 ml, 2 h and 24 h); filtrate concentration and pH, XRPD of remaining solid; format: physicochemical; conditions: for solubility at 2 h / solubility at 24 h: thermodynamic from solid; for pH (24 h): filtrate
Protocol: Approximately 10 mg of malate crystal form VII-A and free base Form A were weighed separately, and 1 ml of buffer solutions with different pH were added to make the solution supersaturated, and the mixtures were stirred at 37° C. for 2 h and 24 hours. The samples were filtered, and the filtrates were measured to determine the concentration and pH value, and the remaining solid was subjected to XRPD determination. The specific results were as follows: […]

[3] = 25° C., 60% RH, 1 week, listed as API
[4] = 25° C., 60% RH, 2 weeks, listed as API
[5] = 40° C., 75% RH, 1 week, listed as API
[6] = 40° C., 75% RH, 2 weeks, listed as API
[7] = Light control, 10 days, listed as API
[8] = Light exposure, 10 days, listed as API

Q: With `CCc1nc2c(N)ncc(-c3ccc(N4CCC(N5CCN(CC)CC5)CC4)c(OC)c3)c2nc1NC1CCOCC1` [Free base Form A, 3-ethyl-8-(4-(4-(4-ethylpiperazin-1-yl)piperidin-1-yl)-3-methoxyphenyl)-N2-(tetrahydro-2H-pyran-4-yl) pyridino [3,4-b]pyrazine-2,5-diamine] as the compound, how does the “Degradation (%)” value ([1]; 25° C., 60% RH (open), 1 week) read?
A: Its value is 0.03%.

Q: What about the “Purity (%)” value ([1]; 25° C., 60% RH (open), 1 week) of the same compound?
A: The value was 95.50%.

Q: And the Crystal form ([1]; 25° C., 60% RH (open), 1 week, XRPD)?
A: The Crystal form was “Unchanged”.

Q: And the “Degradation (%)” value ([1]; 25° C., 60% RH (open), 2 weeks)?
A: The value was 0.04%.

Q: And the “Purity (%)” value ([1]; 25° C., 60% RH (open), 2 weeks)?
A: The value was 95.49%.

Q: What about the Crystal form ([1]; 25° C., 60% RH (open), 2 weeks, XRPD) of the same compound?
A: Its Crystal form is “Unchanged”.

Q: And the Crystal form ([1]; 25° C., 60% RH, 1 week)?
A: The Crystal form was “Unchanged”.

Q: And the Degradation [1, 3]?
A: The Degradation was 0.03%.

Q: And the Purity [1, 3]?
A: The Purity was 95.50%.

Q: What about the Crystal form ([1]; 25° C., 60% RH, 2 weeks) of the same compound?
A: The Crystal form was “Unchanged”.

Q: And the Degradation [1, 4]?
A: The Degradation was 0.04%.

Q: What about the Purity [1, 4] of the same compound?
A: The Purity was 95.49%.

Q: What about the “Degradation (%)” value ([1]; 40° C., 75% RH (open), 1 week) of the same compound?
A: The value was 0.04%.

Q: What about the “Purity (%)” value ([1]; 40° C., 75% RH (open), 1 week) of the same compound?
A: The value was 95.49%.

Q: And the Crystal form ([1]; 40° C., 75% RH (open), 1 week, XRPD)?
A: The Crystal form was “Unchanged”.

Q: What about the “Degradation (%)” value ([1]; 40° C., 75% RH (open), 2 weeks) of the same compound?
A: The value was 2.93%.

Q: What about the “Purity (%)” value ([1]; 40° C., 75% RH (open), 2 weeks) of the same compound?
A: Its value is 92.60%.

Q: And the Crystal form ([1]; 40° C., 75% RH (open), 2 weeks, XRPD)?
A: The Crystal form was “Unchanged”.

Q: What about the Crystal form ([1]; 40° C., 75% RH, 1 week) of the same compound?
A: Its Crystal form is “Unchanged”.

Q: And the Degradation [1, 5]?
A: The Degradation was 0.04%.

Q: What about the Purity [1, 5] of the same compound?
A: Its Purity is 95.49%.

Q: What about the Crystal form ([1]; 40° C., 75% RH, 2 weeks) of the same compound?
A: Its Crystal form is “Unchanged”.

Q: And the Degradation [1, 6]?
A: The Degradation was 2.93%.

Q: What about the Purity [1, 6] of the same compound?
A: The Purity was 92.60%.

Q: What about the “Degradation (%)” value ([1]; 80° C. (open), 1 day) of the same compound?
A: The value was 0.14%.

Q: And the “Purity (%)” value ([1]; 80° C. (open), 1 day)?
A: Its value is 95.39%.

Q: And the Crystal form ([1]; 80° C. (open), 1 day, XRPD)?
A: Its Crystal form is “changed”.

Q: What about the Crystal form ([1]; 80° C., 1 day, listed as API) of the same compound?
A: The Crystal form was “changed”.

Q: And the Degradation ([1]; 80° C., 1 day, listed as API)?
A: Its Degradation is 0.14%.

Q: What about the Purity ([1]; 80° C., 1 day, listed as API) of the same compound?
A: Its Purity is 95.39%.

Q: And the “Degradation (%)” value ([1]; Light contral, 10 days)?
A: Its value is 0.02%.

Q: What about the “Purity (%)” value ([1]; Light contral, 10 days) of the same compound?
A: Its value is 95.51%.

Q: What about the Crystal form ([1]; Light contral, 10 days, XRPD) of the same compound?
A: Its Crystal form is “Unchanged”.

Q: What about the Crystal form ([1]; Light control, 10 days) of the same compound?
A: The Crystal form was “Unchanged”.

Q: And the Degradation [1, 7]?
A: The Degradation was 0.02%.

Q: And the Purity [1, 7]?
A: The Purity was 95.51%.

Q: And the “Degradation (%)” value ([1]; Light exposure, 10 days)?
A: Its value is 7.89%.

Q: What about the “Purity (%)” value ([1]; Light exposure, 10 days) of the same compound?
A: The value was 88.14%.

Q: What about the Crystal form ([1]; Light exposure, 10 days, XRPD) of the same compound?
A: Its Crystal form is “changed”.

Q: What about the Crystal form [1, 8] of the same compound?
A: The Crystal form was “changed”.

Q: What about the Degradation [1, 8] of the same compound?
A: Its Degradation is 7.89%.

Q: And the Purity [1, 8]?
A: The Purity was 88.14%.

Q: And the “Purity (%)” value ([1]; initial)?
A: The value was 95.53%.

Q: And the Purity ([1]; initial, listed as API)?
A: The Purity was 95.53%.

Q: And the Degradation ([1]; light exposure and 40° C., 75% RH)?
A: Its Degradation is “varying degrees of degradation”.

Q: And the solubility at 2 h ([2]; buffer solution pH 1.2, 37 °C, pH 1.2, simulated gastric fluid, medium pH 1.2, 2 h, read-out: Solubility at 37° C.)?
A: Its solubility at 2 h is greater than 10 mg/mL.

Q: And the solubility at 24 h ([2]; buffer solution pH 1.2, 37 °C, pH 1.2, simulated gastric fluid, medium pH 1.2, 24 h, read-out: Solubility at 37° C.)?
A: Its solubility at 24 h is greater than 10 mg/mL.

Q: What about the solubility at 2 h ([2]; buffer solution pH 3.0, 37 °C, pH 3, aqueous buffer, medium pH 3.0, 2 h, read-out: Solubility at 37° C.) of the same compound?
A: The solubility at 2 h was greater than 10 mg/mL.

Q: What about the solubility at 24 h ([2]; buffer solution pH 3.0, 37 °C, pH 3, aqueous buffer, medium pH 3.0, 24 h, read-out: Solubility at 37° C.) of the same compound?
A: Its solubility at 24 h is greater than 10 mg/mL.

Q: What about the solubility at 2 h ([2]; buffer solution pH 4.5, 37 °C, pH 4.5, aqueous buffer, medium pH 4.5, 2 h, read-out: Solubility at 37° C.) of the same compound?
A: Its solubility at 2 h is greater than 10 mg/mL.

Q: What about the solubility at 2 h ([2]; buffer solution pH 4.5, 37 °C, pH 4.5, aqueous buffer, medium pH 4.5, 2 h, read-out: Solubility at 37° C. (mg/ml) 2 h) of the same compound?
A: Its solubility at 2 h is greater than 10 mg/mL.

Q: And the solubility at 24 h ([2]; buffer solution pH 4.5, 37 °C, pH 4.5, aqueous buffer, medium pH 4.5, 24 h, read-out: Solubility at 37° C.)?
A: The solubility at 24 h was greater than 10 mg/mL.

Q: What about the solubility at 24 h ([2]; buffer solution pH 4.5, 37 °C, pH 4.5, aqueous buffer, medium pH 4.5, 24 h, read-out: Solubility at 37° C. (mg/ml) 24 h) of the same compound?
A: The solubility at 24 h was greater than 10 mg/mL.

Q: What about the “pH (24 h)” value ([2]; medium FaSSIF) of the same compound?
A: The value was 5.434.

Q: And the “pH (24 h)” value ([2]; medium FeSSIF)?
A: Its value is 4.992.

Q: And the “pH (24 h)” value ([2]; medium H2O)?
A: Its value is 4.607.

Q: And the “pH (24 h)” value ([2]; medium SGF)?
A: The value was 1.494.
